Laboratory results published in the CheMixHub viscosity set.
± gives the uncertainty stated by the source.

Assay: xn = mol fraction of the nth substance listed

SMILES: Cc1cccc(O)c1 + CCC(=O)O
- viscosity (298.15 K, 101 kPa, x2 = 0.1345): 9.375 ± 1.1 mPa·s
- viscosity (298.15 K, 101 kPa, x2 = 0.2591): 7.067 ± 0.85 mPa·s
- viscosity (298.15 K, 101 kPa, x2 = 0.3747): 5.436 ± 0.69 mPa·s
- viscosity (298.15 K, 101 kPa, x2 = 0.4825): 4.234 ± 0.56 mPa·s
- viscosity (298.15 K, 101 kPa, x2 = 0.5831): 3.319 ± 0.44 mPa·s
- viscosity (298.15 K, 101 kPa, x2 = 0.6772): 2.606 ± 0.35 mPa·s
- viscosity (298.15 K, 101 kPa, x2 = 0.7654): 2.045 ± 0.28 mPa·s
- viscosity (298.15 K, 101 kPa, x2 = 0.8483): 1.606 ± 0.23 mPa·s
- viscosity (298.15 K, 101 kPa, x2 = 0.9264): 1.269 ± 0.18 mPa·s
- viscosity (308.15 K, 101 kPa, x2 = 0.1345): 5.793 ± 0.73 mPa·s
- viscosity (308.15 K, 101 kPa, x2 = 0.2591): 4.756 ± 0.62 mPa·s
- viscosity (308.15 K, 101 kPa, x2 = 0.3747): 3.908 ± 0.52 mPa·s
- viscosity (308.15 K, 101 kPa, x2 = 0.4825): 3.221 ± 0.43 mPa·s
- viscosity (308.15 K, 101 kPa, x2 = 0.5831): 2.608 ± 0.35 mPa·s
- viscosity (308.15 K, 101 kPa, x2 = 0.6772): 2.105 ± 0.29 mPa·s
- viscosity (308.15 K, 101 kPa, x2 = 0.7654): 1.658 ± 0.23 mPa·s
- viscosity (308.15 K, 101 kPa, x2 = 0.8483): 1.316 ± 0.19 mPa·s
- viscosity (308.15 K, 101 kPa, x2 = 0.9264): 1.088 ± 0.16 mPa·s
- viscosity (318.15 K, 101 kPa, x2 = 0.1345): 4.646 ± 0.61 mPa·s
- viscosity (318.15 K, 101 kPa, x2 = 0.2591): 3.935 ± 0.52 mPa·s
- viscosity (318.15 K, 101 kPa, x2 = 0.3747): 3.285 ± 0.44 mPa·s
- viscosity (318.15 K, 101 kPa, x2 = 0.4825): 2.719 ± 0.37 mPa·s
- viscosity (318.15 K, 101 kPa, x2 = 0.5831): 2.255 ± 0.31 mPa·s
- viscosity (318.15 K, 101 kPa, x2 = 0.6772): 1.884 ± 0.26 mPa·s
- viscosity (318.15 K, 101 kPa, x2 = 0.7654): 1.566 ± 0.22 mPa·s
- viscosity (318.15 K, 101 kPa, x2 = 0.8483): 1.277 ± 0.18 mPa·s
- viscosity (318.15 K, 101 kPa, x2 = 0.9264): 0.9609 ± 0.14 mPa·s

SMILES: Cc1cccc(O)c1 + CC(=O)c1ccccc1
- viscosity (303.15 K, 101 kPa, x2 = 0.139): 8.438 ± 0.071 mPa·s
- viscosity (303.15 K, 101 kPa, x2 = 0.1802): 8.063 ± 0.068 mPa·s
- viscosity (303.15 K, 101 kPa, x2 = 0.27): 7.268 ± 0.061 mPa·s
- viscosity (303.15 K, 101 kPa, x2 = 0.4388): 5.843 ± 0.05 mPa·s
- viscosity (303.15 K, 101 kPa, x2 = 0.4644): 5.63 ± 0.048 mPa·s
- viscosity (303.15 K, 101 kPa, x2 = 0.5506): 4.927 ± 0.043 mPa·s
- viscosity (303.15 K, 101 kPa, x2 = 0.7407): 3.39 ± 0.03 mPa·s
- viscosity (303.15 K, 101 kPa, x2 = 0.8321): 2.684 ± 0.024 mPa·s
- viscosity (303.15 K, 101 kPa, x2 = 0.9266): 2 ± 0.018 mPa·s

SMILES: Brc1ccc(Br)cc1 + c1ccccc1
- viscosity (298.15 K, 101 kPa, x1 = 0.2002): 0.8249 ± 0.021 mPa·s
- viscosity (298.15 K, 101 kPa, x1 = 0.2312): 0.8532 ± 0.021 mPa·s
- viscosity (303.15 K, 101 kPa, x1 = 0.2002): 0.7715 ± 0.019 mPa·s
- viscosity (303.15 K, 101 kPa, x1 = 0.2312): 0.8051 ± 0.02 mPa·s
- viscosity (308.15 K, 101 kPa, x1 = 0.2002): 0.719 ± 0.018 mPa·s
- viscosity (308.15 K, 101 kPa, x1 = 0.2312): 0.7502 ± 0.019 mPa·s
- viscosity (313.15 K, 101 kPa, x1 = 0.2002): 0.6739 ± 0.017 mPa·s
- viscosity (313.15 K, 101 kPa, x1 = 0.2312): 0.7021 ± 0.018 mPa·s

SMILES: CC(=O)c1ccc(C)cc1 + CCNc1ccccc1
- viscosity (303.15 K, 100 kPa, x2 = 0.0838): 1.587 ± 0.021 mPa·s
- viscosity (303.15 K, 100 kPa, x2 = 0.1427): 1.592 ± 0.021 mPa·s
- viscosity (303.15 K, 100 kPa, x2 = 0.2179): 1.601 ± 0.021 mPa·s
- viscosity (303.15 K, 100 kPa, x2 = 0.2904): 1.608 ± 0.021 mPa·s
- viscosity (303.15 K, 100 kPa, x2 = 0.3608): 1.616 ± 0.021 mPa·s
- viscosity (303.15 K, 100 kPa, x2 = 0.4284): 1.625 ± 0.021 mPa·s
- viscosity (303.15 K, 100 kPa, x2 = 0.4942): 1.635 ± 0.021 mPa·s
- viscosity (303.15 K, 100 kPa, x2 = 0.5577): 1.645 ± 0.021 mPa·s
- viscosity (303.15 K, 100 kPa, x2 = 0.6194): 1.656 ± 0.021 mPa·s
- viscosity (303.15 K, 100 kPa, x2 = 0.6889): 1.67 ± 0.021 mPa·s
- viscosity (303.15 K, 100 kPa, x2 = 0.7467): 1.683 ± 0.022 mPa·s
- viscosity (303.15 K, 100 kPa, x2 = 0.8128): 1.697 ± 0.022 mPa·s
- viscosity (303.15 K, 100 kPa, x2 = 0.9072): 1.718 ± 0.022 mPa·s
